The values that follow come from patent publication EP4389121A1, “ANTIVIRAL AMINO ACID DERIVATIVES” (Consejo Superior De Investigaciones Científicas (CSIC), priority 2022, dated 2024).

Read-outs that look alike come from different tables or passages of the source. Where only a bound is given, the exact number is not on record here.

The test system of series [1] is SARS-CoV-2 in Vero-E6 cells. The experiment in a line: microbe, parasite or virus in culture. Format: cell-based. The settings on record: Severe acute respiratory syndrome coronavirus 2, Vero C1008.
Series [2] concerns SARS-CoV-2. The experiment in a line: Intracellular viral antigen (N protein) accumulation by immunofluorescence, A549-ACE2 cells. Format: cell-based. The conditions noted are these: Severe acute respiratory syndrome coronavirus 2, A549-ACE2, MOI 0.005, 48 h, N protein signal.
The test system of series [3] is SARS-CoV-2. The experiment in a line: Intracellular viral antigen (N protein) accumulation by immunofluorescence, Vero-E6 cells. The format is cell-based. The conditions noted are these: Severe acute respiratory syndrome coronavirus 2, Vero C1008, Vero-E6, MOI 0.01, 24 h, N protein signal.
The nature of series [4]: Cytotoxicity by MTT colorimetric assay, Vero-E6. The settings on record: African green monkey, uninfected Vero-E6 cells. The format is cell-based.
The subject of series [5] is vesicular stomatitis virus (VSV-GFP). Briefly: microbe, parasite or virus in culture. Format: cell-based. The conditions noted are these: A549-ACE2, 16 h.
Series [6] relates to West Nile virus (WNV-GFP). Briefly: microbe, parasite or virus in culture. The format is cell-based. The settings on record: Huh-7, 48 h.
Series [7] in a line: in vitro. The settings on record: human.
The nature of series [8]: in vitro. The conditions noted are these: African green monkey.
Series [9] is described as follows: in vitro. The conditions noted are these: human. The source holds these as a separate data set.
Method: To evaluate the cytotoxicity profile of the selected compounds MTT assays were performed in Vero-E6 and A549-ACE2 cells. Uninfected cells were incubated with a range of compound concentrations (from 50 to 0.78 µM) for forty-eight hours, time at which the MTT substrate [3-(4,5-dimethylthiazol-2-yl)-2,5-diphenyltetrazolium bromide] was added and the formation of formazan precipitates was evaluated two hours later, using a colorimetric readout. Vehicle-treated (DMSO) cells were used as reference (100 %).
The nature of series [10]: in vitro. The conditions noted are these: human. This is another data set of the same source.
Method: (§1) To study the antiviral effect of selected compounds of the family against a distinct human coronavirus, Huh-7 cell monolayers were infected with a GFP-expressing recombinant HCoV 229E (229E-GFP) at MOI 0.01 in the presence of a wide range of compound concentrations (0.4 to 50 µM). Forty-eight hours later cells were fixed by 10 minutes incubation with a 4 % formaldehyde-PBS solution. After extensive washes with PBS, infection efficiency was evaluated by the detection of GFP accumulation by fluorescence microscopy. Nuclei were stained using DAPI (4',6-diamidino-2-phenylindole) dye. Automated imaging was carried out in a SparkCyto (Tecan) multimode plate reader. The total intensity signal present in vehicle-treated (DMSO) conditions was used as reference (100 %).
Series [11] in a line: in vitro. The settings on record: human. The source holds these as a separate data set.
Method: Cytotoxicity profile of the selected compounds was evaluated by MTT assays in parallel wells of Huh-7 cells. Uninfected cells were incubated with a range of compound concentrations (from 50 to 0.78 µM) for forty-eight hours, time at which the MTT substrate [3-(4,5-dimethylthiazol-2-yl)-2,5-diphenyltetrazolium bromide] was added and the formation of formazan precipitates was evaluated two hours later, using a colorimetric readout. Vehicle-treated (DMSO) cells were used as reference (100 %).
Series [12] in a line: in vitro. The conditions noted are these: human. This is another data set of the same source.
The subject of series [13] is HCoV 229E (229E-GFP). Briefly: organism not typed. The conditions noted are these: Huh-7, 48 h.
Method: as §1

As to `CCCCCCOC(=O)[C@H](CCC(=O)NCCC1CCN(Cc2ccccc2)CC1)NC(=O)c1coc(C)n1` [NF1331, n-Hexyl N^5-(2-(1-benzylpiperidin-4-yl)ethyl)-N^2-(2-methyloxazole-4-carbonyl)-L-glutaminate], the EC50 in [1] (approximate, estimated from PCmax and PCmin, Vero-E6, MOI 0.001, 72 h, read-out: EC50 approx.) is 2.4 µM; in series [2] (read-out: EC50), 1.8 µM; in [3] (read-out: EC50), 1.5 µM; in series [5], 38 µM; in [6], greater than 50 µM; in [13], 2 µM. The minimal effective concentration was determined as 3.12 µM in series [1] (minimum nominal concentration protecting the Vero-E6 monolayer from virus-induced cell death, MOI 0.001, 72 h, read-out: PCmin) and 3.3 µM in series [1] (real concentration, Vero-E6, MOI 0.001, 72 h, read-out: PC min real). Also, the EC90 in [2] (read-out: EC90) was 5 µM; in series [3] (read-out: EC90), 11 µM; in series [5], greater than 50 µM; in series [6] it was greater than 50 µM; in series [13], 20 µM. The CC50 at 48 h was greater than 50 µM in [4]; greater than 50 µM in [9]; 43 µM in series [10]; greater than 50 µM in series [11]; greater than 50 µM in series [12]. Besides, the CC50 in [7], in series [8], in series [9] and in series [11] was greater than 50 µM in each case.
